This experiment addresses human phosphodiesterase-5 (PDE5) (Homo sapiens, UniProt O76074). As to the kind of experiment: PDE5 assay (3H-cGMP as tracer). Format: biochemical. To be noted: read-out: Inhibitory activity [%], PDE5.

Consider one compound from patent publication US7914827B2, “Use of extracts or extractants of the guajacum types, said extracts or extractants bringing about phosphodiesterase-4 inhibition and method for producing the same” (Max Zeller Soehne AG, priority 2006, dated 2011).

Take `CCCc1nn(C)c2c(=O)[nH]c(-c3cc(S(=O)(=O)N4CCN(C)CC4)ccc3OCC)nc12` [Sildenafil]: the inhibition at 1 pM turned out to be 5%, the inhibition at 0.0001 µM was 21%, the inhibition at 0.01 µM was 52% and the inhibition at 1 µM stood at 74%.
